Experimental data taken from patent publication US20250268884A1, “Deuterated Domperidone for Treating Gastroparesis” (CinDome Pharma, Inc., priority 2022, published 2025).

System: adults with idiopathic or diabetic gastroparesis
Experiment: Safety: adverse events, laboratory values, vital signs, Phase 2a
[1] = 5 mg BID (N = 9), Safety Population

Description: Safety was evaluated through assessments of Aes, vital signs, physical examinations, clinical laboratory evaluations (including prolactin), and ECG findings. Additionally, a single, optional PGx blood sample may have been collected at any time during the subject's participation in the study.
Safety variables included Aes, clinical laboratory results (including prolactin), vital signs, ECGs, and physical examination findings.

Compound: [2H]c1c([2H])c([2H])c2c([nH]c(=O)n2CCCN2CCC(n3c(=O)[nH]c4cc(Cl)ccc43)CC2)c1[2H] [Deudomperidone, 1-{3-[4-(5-chloro-2-oxo-2,3-dihydro-1H-1,3-benzodiazol-1-yl)piperidin-1yl]propyl}-2,3-dihydro(4,5,6,7-D4)-1H-1,3-benzodiazol-2-one]
- TEAEs reported (5 mg BID): 1 TEAE
- other TEAE: abdominal pain lower (5 mg BID): 1 subject each
- other study drug-related TEAE: abdominal pain lower (5 mg BID): 1 subject each
- study drug-related TEAEs reported (5 mg BID): 1 TEAE
- subjects with study drug-related TEAEs (5 mg BID): 1 (11.1%) subjects (%)
- Study drug-related TEAE Abdominal pain lower, % (5 mg BID (N = 9)): (11.1) %
- Study drug-related TEAE Blood creatine phosphokinase increased, % (5 mg BID (N = 9)): (0.0) %
- Study drug-related TEAE Cardiac disorders, % (5 mg BID (N = 9)): (0.0) %
- Study drug-related TEAE Diarrhoea, % (5 mg BID (N = 9)): (0.0) %
- Study drug-related TEAE Ear and labyrinth disorders, % (5 mg BID (N = 9)): (0.0) %
- Study drug-related TEAE Electrocardiogram QT prolonged, % (5 mg BID (N = 9)): (0.0) %
- Study drug-related TEAE Gastrointestinal disorders, % (5 mg BID (N = 9)): (11.1) %
- Study drug-related TEAE Headache, % (5 mg BID (N = 9)): (0.0) %
- Study drug-related TEAE Investigations, % (5 mg BID (N = 9)): (0.0) %
- Study drug-related TEAE Nausea, % (5 mg BID (N = 9)): (0.0) %
- Study drug-related TEAE Nervous system disorders, % (5 mg BID (N = 9)): (0.0) %
- Study drug-related TEAE Palpitations, % (5 mg BID (N = 9)): (0.0) %
- Study drug-related TEAE Tinnitus, % (5 mg BID (N = 9)): (0.0) %
- Subjects with any TEAEs, % (5 mg BID (N = 9)): 11.1%
- Subjects with any TEAEs, e (events) (5 mg BID (N = 9)): 1
- Subjects with any study drug-related TEAE, % (5 mg BID (N = 9)): 11.1%
- Subjects with any study drug-related TEAE, e (events) (5 mg BID (N = 9)): 1
- TEAE Abdominal pain lower, % (5 mg BID (N = 9)): (11.1) %
- TEAE Arthralgia, % (5 mg BID (N = 9)): (0.0) %
- TEAE Back pain, % (5 mg BID (N = 9)): (0.0) %
- TEAE Blood creatine phosphokinase increased, % (5 mg BID (N = 9)): (0.0) %
- TEAE Cardiac disorders, % (5 mg BID (N = 9)): (0.0) %
- TEAE Constipation, % (5 mg BID (N = 9)): (0.0) %
- TEAE Decreased appetite, % (5 mg BID (N = 9)): (0.0) %
- TEAE Diarrhoea, % (5 mg BID (N = 9)): (0.0) %
- TEAE Dyspepsia, % (5 mg BID (N = 9)): (0.0) %
- TEAE Ear and labyrinth disorders, % (5 mg BID (N = 9)): (0.0) %
- TEAE Electrocardiogram QT prolonged, % (5 mg BID (N = 9)): (0.0) %
- TEAE Gastrointestinal disorders, % (5 mg BID (N = 9)): (11.1) %
- TEAE Headache, % (5 mg BID (N = 9)): (0.0) %
- TEAE Hypoglycaemia, % (5 mg BID (N = 9)): (0.0) %
- TEAE Infections and infestations, % (5 mg BID (N = 9)): (0.0) %
- TEAE Investigations, % (5 mg BID (N = 9)): (0.0) %
- TEAE Metabolism and nutrition disorders, % (5 mg BID (N = 9)): (0.0) %
- TEAE Musculoskeletal and connective tissue disorders, % (5 mg BID (N = 9)): (0.0) %
- TEAE Nausea, % (5 mg BID (N = 9)): (0.0) %
- TEAE Nervous system disorders, % (5 mg BID (N = 9)): (0.0) %
- TEAE Palpitations, % (5 mg BID (N = 9)): (0.0) %
- TEAE Sinusitis, % (5 mg BID (N = 9)): (0.0) %
- TEAE Tinnitus, % (5 mg BID (N = 9)): (0.0) %
- TEAE Vomiting, % (5 mg BID (N = 9)): (0.0) %
- Any Aes, % of subjects [1]: (11.1) %
- Any Aes, n subjects [1]: 1
- Any TEAEs by maximum severity: Mild, % of subjects [1]: (11.1) %
- Any TEAEs by maximum severity: Mild, n subjects [1]: 1
- Any TEAEs by maximum severity: Moderate, % of subjects [1]: (0.0) %
- Any TEAEs by maximum severity: Moderate, n subjects [1]: 0
- Any TEAEs by maximum severity: Severe, % of subjects [1]: (0.0) %
- Any TEAEs by maximum severity: Severe, n subjects [1]: 0
- Any TEAEs leading to death, % of subjects [1]: (0.0) %
- Any TEAEs leading to death, n subjects [1]: 0
- Any TEAEs leading to discontinuation, % of subjects [1]: (0.0) %
- Any TEAEs leading to discontinuation, n subjects [1]: 0
- Any TEAEs, % of subjects [1]: 11.1%
- Any TEAEs, e (number of events) [1]: 1
- Any TEAEs, n subjects [1]: 1
- Any serious TEAEs, % of subjects [1]: (0.0) %
- Any serious TEAEs, n subjects [1]: 0
- Any study drug-related TEAEs by maximum severity: Mild, % of subjects [1]: (11.1) %
- Any study drug-related TEAEs by maximum severity: Mild, n subjects [1]: 1
- Any study drug-related TEAEs by maximum severity: Moderate, % of subjects [1]: (0.0) %
- Any study drug-related TEAEs by maximum severity: Moderate, n subjects [1]: 0
- Any study drug-related TEAEs by maximum severity: Severe, % of subjects [1]: (0.0) %
- Any study drug-related TEAEs by maximum severity: Severe, n subjects [1]: 0
- Any study drug-related TEAEs leading to discontinuation, % of subjects [1]: (0.0) %
- Any study drug-related TEAEs leading to discontinuation, n subjects [1]: 0
- Any study drug-related TEAEs, % of subjects [1]: (11.1) %
- Any study drug-related TEAEs, n subjects [1]: 1
- Any study drug-related serious TEAEs, % of subjects [1]: (0.0) %
- Any study drug-related serious TEAEs, n subjects [1]: 0
- subjects who experienced a TEAE (5 mg BID, Safety Population): 1 (11.1%) subjects (%)
- TEAE diarrhoea (10 mg BID): 3 (10.0%) subjects (%)
- TEAE electrocardiogram QT prolonged (10 mg BID): 1 (3.3%) subjects (%)
- TEAE hypoglycaemia (10 mg BID): 1 (3.3%) subjects (%)
- TEAEs reported (10 mg BID): 11 TEAEs
- other TEAEs, each: nausea, vomiting, blood creatine phosphokinase increased, decreased appetite, palpitations, tinnitus (10 mg BID): 1 subject each
- other study drug-related TEAEs, each: nausea, blood creatine phosphokinase increased, palpitations, tinnitus (10 mg BID): 1 subject each
- study drug-related TEAE diarrhoea (10 mg BID): 2 (6.7%) subjects (%)
- study drug-related TEAEs reported (10 mg BID): 6 TEAEs
- subjects with study drug-related TEAEs (10 mg BID): 4 (13.3%) subjects (%)
- Study drug-related TEAE Abdominal pain lower, % (10 mg BID (N = 30)): (0.0) %
- Study drug-related TEAE Blood creatine phosphokinase increased, % (10 mg BID (N = 30)): (3.3) %
- Study drug-related TEAE Cardiac disorders, % (10 mg BID (N = 30)): (3.3) %
- Study drug-related TEAE Diarrhoea, % (10 mg BID (N = 30)): (6.7) %
- Study drug-related TEAE Ear and labyrinth disorders, % (10 mg BID (N = 30)): (3.3) %
- Study drug-related TEAE Electrocardiogram QT prolonged, % (10 mg BID (N = 30)): (0.0) %
- Study drug-related TEAE Gastrointestinal disorders, % (10 mg BID (N = 30)): (10.0) %
- Study drug-related TEAE Headache, % (10 mg BID (N = 30)): (0.0) %
- Study drug-related TEAE Investigations, % (10 mg BID (N = 30)): (3.3) %
- Study drug-related TEAE Nausea, % (10 mg BID (N = 30)): (3.3) %
- Study drug-related TEAE Nervous system disorders, % (10 mg BID (N = 30)): (0.0) %
- Study drug-related TEAE Palpitations, % (10 mg BID (N = 30)): (3.3) %
- Study drug-related TEAE Tinnitus, % (10 mg BID (N = 30)): (3.3) %
- Subjects with any TEAEs, % (10 mg BID (N = 30)): 20.0%
- Subjects with any TEAEs, e (events) (10 mg BID (N = 30)): 11
- Subjects with any study drug-related TEAE, % (10 mg BID (N = 30)): 13.3%
- Subjects with any study drug-related TEAE, e (events) (10 mg BID (N = 30)): 6
- TEAE Abdominal pain lower, % (10 mg BID (N = 30)): (0.0) %
- TEAE Arthralgia, % (10 mg BID (N = 30)): (0.0) %
- TEAE Back pain, % (10 mg BID (N = 30)): (0.0) %
- TEAE Blood creatine phosphokinase increased, % (10 mg BID (N = 30)): (3.3) %
- TEAE Cardiac disorders, % (10 mg BID (N = 30)): (3.3) %
- TEAE Constipation, % (10 mg BID (N = 30)): (0.0) %
- TEAE Decreased appetite, % (10 mg BID (N = 30)): (3.3) %
- TEAE Diarrhoea, % (10 mg BID (N = 30)): (10.0) %
- TEAE Dyspepsia, % (10 mg BID (N = 30)): (0.0) %
- TEAE Ear and labyrinth disorders, % (10 mg BID (N = 30)): (3.3) %
- TEAE Electrocardiogram QT prolonged, % (10 mg BID (N = 30)): (3.3) %
- TEAE Gastrointestinal disorders, % (10 mg BID (N = 30)): (13.3) %
- TEAE Headache, % (10 mg BID (N = 30)): (0.0) %
- TEAE Hypoglycaemia, % (10 mg BID (N = 30)): (3.3) %
- TEAE Infections and infestations, % (10 mg BID (N = 30)): (0.0) %
- TEAE Investigations, % (10 mg BID (N = 30)): (6.7) %
- TEAE Metabolism and nutrition disorders, % (10 mg BID (N = 30)): (6.7) %
- TEAE Musculoskeletal and connective tissue disorders, % (10 mg BID (N = 30)): (0.0) %
